{
  "source": "paper PMC4709452",
  "about": "(Frontiers in Pharmacology, 2016)",
  "key": {"anesthetized rats [1]": {"tested_on": "anesthetized rats", "assay": "Basal cardiovascular parameters in anesthetized, pre-treated rats", "format": "in vivo, rat", "conditions": "15 min after i.v. bolus (enalaprilat 0.1 mg/kg, Plummer's inhibitor 0.75 mg/kg, icatibant 10 μg/kg, B-9858 20 μg/kg), means ± SEM", "excerpt": "(§1) The femoral arterial catheter implanted to monitor direct blood pressure was connected to a pressure transducer (TSD 104A, Biopac Systems Inc., Goleta, CA, USA) coupled to a computer-based data acquisition system (MP100, Biopac Systems Inc., Goleta, CA, USA) to continuously record pulsate arterial pressure. The animals were maintained under anesthesia and were warmed with a heated pad.\n(§2) The mechanism subserving the cardiovascular responses to i.v. injections of increasing doses of the different BK agonists was first investigated in animals pretreated with the ACE inhibitor, enalaprilat. In these experiments, the animals were separated in five groups depending on the agonist tested. Enalaprilat was intravenously administered as bolus (0.1 mg/kg, 0.1 ml) following a 10 min period of baseline measurements of HR and blood pressure. Fifteen minutes later, dose-response curves to BK, BK-His-Leu, B-9972, BK-Arg, or BK-Ala-Pro were obtained in the indicated group of rats, as described above. Further experiments were made in rats pretreated with the Plummer’s inhibitor (mercaptomethyl- 3-guanidinoethylthiopropanoic acid), a high affinity inhibitor of arginine carboxypeptidases that is an arginine analog ([Plummer and Ryan, 1981]). In these experiments, the inhibitor was intravenously administered as bolus (0.75 mg/kg, 0.1 ml) followed 15 min later by the i.v. injection of increasing doses of BK or BK-Arg, in two different groups of rats. […] In these experiments, icatibant was intravenously administered as bolus (10 μg/kg, 0.1 ml) 15 min before the i.v. injection of increasing doses of BK, BK-His-Leu, B-9972, BK-Ala-Pro, or BK-Arg, in separated groups of rats, as above. The doses of different inhibitors were based on preliminary experiments and from studies performed by others ([Ishida et al., 1989]; [Wirth et al., 1991]; [Muto et al., 2003]), with deliberate low dosing for peptidase inhibitors for the sake of their selectivity of action. Whether a component of BK hemodynamic effects is mediated by the B1R was assessed in rats pre-treated with the specific B1R antagonist, B-9858 (20 μg/kg, 0.1 ml). B-9858 (Lys-Lys-[Hyp^3, Igl^5, D-Igl^7, Oic^8]des-Arg^9-BK) is a selective B1R antagonist ([Leeb-Lundberg et al., 2005]) that has been found active at the rat B1R ([Scott et al., 2003]).\nBaseline values for MAP and HR measured in the untreated control group or 15 min after i.v. pretreatment with enalaprilat, icatibant or the Plummer’s inhibitor are shown in Table 2. While no significant changes in basal values of MAP were noted between the enalaprilat and Plummer’s inhibitor pretreated groups, a slight but significant reduction in basal MAP was found between the icatibant pretreated group and the control group. Furthermore, slight but significant reductions in basal HR were noted between the icatibant and Plummer’s inhibitor pretreated groups and the control group, while a small significant increase in basal HR was found between the enalaprilat pretreated groups and the control group."}, "anesthetized rats [2]": {"tested_on": "anesthetized rats", "assay": "In vivo vascular reactivity: hypotensive (MAP) response to i.v. bolus injections", "set-up": "species or system rat", "conditions": "for doses at which the decrease in MAP was significant compared to vehicle: doses tested 0.025-6.4 μg/kg, untreated anesthetized rats, Dunnett's test", "procedure": "(§3) At the end of the acclimation period, the rats were anesthetized with sodium pentobarbital (50 mg kg^-1, i.p., supplemented as required) and had two separate catheters implanted; one into the right jugular vein [for intravenous (i.v.) injection] and the other into the left femoral artery (for direct measurement of blood pressure and heart rate (HR). In some experiments, a pulsed Doppler flow probe ([Haywood et al., 1981]) was also implanted around the distal abdominal aorta (below the ileocecal artery) through a midline abdominal incision to monitor changes in hindquarter hemodynamic, according to the method developed by [Gardiner and Bennett (1988)] and as previously described ([Bachelard et al., 1992b]). The probes wires were connected to a pulsed Doppler monitoring system (VF-1 Doppler flowmeter; Crystal Biotech, Holliston, MA, USA) modified to operate with a pulse repetition frequency of 125 kHz ([Gardiner et al., 1990]) and fitted with HVPD-20 modules. The mean Doppler signal represents the average hindquarter blood flow velocity, a relative index of blood flow. […] Experiments started at least 30 min following the end of surgery in anesthetized rats.\nas §1\nThe experiments were initiated after allowing at least 20 min for stabilization. Then, baseline measurements of HR and phasic and mean arterial blood pressure (MAP) were made over a period of 10 min. […] Peptides were dissolved in isotonic saline (0.9% NaCl) containing 0.1% BSA to prevent the adsorption of peptide to the glassware and plastic surfaces. All i.v. injections were given as 100 μl boluses which were washed in with a further 100 μl of saline (the dead space of the catheter). Only one peptide was tested per group of rats and each injection started with saline-BSA 0.1% followed by the lowest dose of peptide. The next dose was administered once all recorded cardiovascular parameters had returned to baseline after the previous injection (usually 2–10 min). At the end of the experiments each animal was euthanized with an overdose of sodium pentobarbitone (240 mg/kg, i.v.).\nas §2, with “The doses of different inhibitors were based on preliminary experiments and from studies performed by others ([Ishida et al., 1989]; [Wirth et al., 1991]; [Muto et al., 2003]), with deliberate low dosing for peptidase inhibitors for the sake of their selectivity of action. Whether a component of BK hemodynamic effects is mediated by the B1R was assessed in rats pre-treated with the specific B1R antagonist, B-9858 (20 μg/kg, 0.1 ml). B-9858 (Lys-Lys-[Hyp^3, Igl^5, D-Igl^7, Oic^8]des-Arg^9-BK) is a selective B1R antagonist ([Leeb-Lundberg et al., 2005]) that has been found active at the rat B1R ([Scott et al., 2003]).” left out"}, "anesthetized rats [3]": {"tested_on": "anesthetized rats", "assay": "In vivo vascular reactivity: heart rate changes after i.v. bolus injections", "set-up": "species or system rat", "procedure": "as §3, with “rats. […]” for “rats.”\nThe experiments were initiated after allowing at least 20 min for stabilization. […] The next dose was administered once all recorded cardiovascular parameters had returned to baseline after the previous injection (usually 2–10 min). […]"}, "[4]": {"conditions": "icatibant 10 μg/kg i.v. 15 min before, agonist 0.025-6.4 μg/kg i.v."}},
  "data": [
    {"compound": "D-Arg-[Hyp^3, Thi^5, D-Tic^7, Oic^8] bradykinin [Icatibant]", "values": [
      {"measurement": "Basal mean arterial blood pressure (MAP) after pre-treatment", "setting": "anesthetized rats [1]; control 103.1 ± 1.8, in mmHg", "result": "95.3 ± 1.6ˆ*"},
      {"measurement": "Basal heart rate (HR) after pre-treatment", "setting": "anesthetized rats [1]; control 393 ± 6, in bpm", "result": "356 ± 8ˆ**"}
    ]},
    {"compound": "Lys-Lys-[Hyp^3, Igl^5, D-Igl^7, Oic^8]des-Arg^9-BK [B-9858]", "values": [
      {"measurement": "Basal mean arterial blood pressure (MAP) after pre-treatment", "setting": "anesthetized rats [1]; control 103.1 ± 1.8", "result": "103.3 ± 6.2"},
      {"measurement": "Basal heart rate (HR) after pre-treatment", "setting": "anesthetized rats [1]; control 393 ± 6, in bpm (unit assumed)", "result": "397 ± 11"}
    ]},
    {"compound": "bradykinin (RPPGFSPFR; Bradykinin; UniProt P01042 381-389, looked up) [BK]", "values": [
      {"measurement": "effect of B-9858 (B1R antagonist) pretreatment on the hypotensive response", "setting": "anesthetized rats [2]; B-9858 20 μg/kg i.v.", "result": "did not significantly modify"},
      {"measurement": "effect of Plummer's inhibitor pretreatment on the hypotensive response", "setting": "anesthetized rats [2]; Plummer's inhibitor 0.75 mg/kg i.v. 15 min before", "result": "no effect"},
      {"measurement": "potentiation of the hypotensive effect by enalaprilat pretreatment", "setting": "anesthetized rats [2]; enalaprilat 0.1 mg/kg i.v. 15 min before", "result": "~15", "unit": "fold"},
      {"measurement": "doses at which the decrease in MAP was significant compared to vehicle", "setting": "anesthetized rats [2]; i.v. bolus", "result": "≥ 0.4", "unit": "µg/kg"},
      {"measurement": "effect of icatibant pretreatment on the hypotensive response", "setting": "anesthetized rats [2]; [4]", "result": "significantly and extensively inhibited"},
      {"measurement": "dose at which a significant bradycardia preceded tachycardia", "setting": "anesthetized rats [3]", "result": 6.4, "unit": "µg/kg"},
      {"measurement": "doses at which tachycardia accompanied the hypotensive response", "setting": "anesthetized rats [3]; doses tested 0.025-6.4 μg/kg, compared with vehicle", "result": "≥ 0.4", "unit": "µg/kg"}
    ]},
    {"compound": "D-Arg-[Hyp^3,Igl^5,Oic^7,Igl^8]-BK [B-9972]", "values": [
      {"measurement": "effect of enalaprilat pretreatment on the dose-dependent hypotensive response", "setting": "anesthetized rats [2]; enalaprilat 0.1 mg/kg i.v. 15 min before, agonist 0.025-6.4 μg/kg i.v.", "result": "not affected"},
      {"measurement": "half-recovery time of hypotensive episodes compared with a similar dose of BK", "setting": "anesthetized rats [2]; i.v. bolus, for B-9972 the highest dose", "result": "significantly longer"},
      {"measurement": "reduction of apparent hypotensive potency by icatibant", "setting": "anesthetized rats [2]; icatibant 10 μg/kg i.v. 15 min before", "result": "about 10 fold"},
      {"measurement": "effect of icatibant pretreatment on the hypotensive response", "setting": "anesthetized rats [2]; [4]", "result": "significantly abated"}
    ]},
    {"compound": "des-Arg^9-BK", "values": [
      {"measurement": "effect on MAP at the dose of 0.025 μg/kg", "setting": "anesthetized rats [2]; i.v. bolus, compared to vehicle, n = 9", "result": "no significant effect"},
      {"measurement": "doses at which the decrease in MAP was significant compared to vehicle", "setting": "anesthetized rats [2]; i.v. bolus", "result": "≥ 0.1", "unit": "µg/kg"}
    ]},
    {"compound": "N=C(N)NCCSCC(CS)C(=O)O", "note": "(stereo not drawn) [Plummer’s inhibitor, mercaptomethyl-3-guanidinoethylthiopropanoic acid]", "values": [
      {"measurement": "Basal mean arterial blood pressure (MAP) after pre-treatment", "setting": "anesthetized rats [1]; control 103.1 ± 1.8", "result": "107.1 ± 4.7"},
      {"measurement": "Basal heart rate (HR) after pre-treatment", "setting": "anesthetized rats [1]; control 393 ± 6, in bpm", "result": "353 ± 17ˆ*"}
    ]},
    {"compound": "C[C@H](N[C@@H](CCc1ccccc1)C(=O)O)C(=O)N1CCC[C@H]1C(=O)O", "note": "[Enalaprilat, enalaprilat]", "values": [
      {"measurement": "Basal mean arterial blood pressure (MAP) after pre-treatment", "setting": "anesthetized rats [1]; control 103.1 ± 1.8", "result": "99.2 ± 1.5"},
      {"measurement": "Basal heart rate (HR) after pre-treatment", "setting": "anesthetized rats [1]; control 393 ± 6, in bpm", "result": "416 ± 6ˆ*"}
    ]}
  ]
}
